How the values were obtained:
SH-SY5Y cells = conditions: 100 μM; ref Luchtman et al., 2013; cited from earlier work
[1] = tested on: primary rat mesencephalic neurons; parameters: method as in Luchtman et al., 2013; conditions: 100 μM; ref Luchtman et al., 2013; cited from earlier work
Aβ1-42 = target: T1, Aβ1-42 (Homo sapiens, UniProt P05067); assay: Inhibition of Aβ1-42 self-aggregation, thioflavin-T (ThT) fluorescence assay; assay type: biochemical; conditions: 24 h; for IC50: read-out: Beta-Amyloid Aggregation IC50; for inhibition at 10 µM: single concentration of 10 μM, read-out: Beta-Amyloid Aggregation Inhibition (%)
T1 construct: Aβ1-42 peptides were purchased from Kelowna International Scientific Inc; purchased Kelowna International Scientific Inc
T1 sequence (P05067 672-713 limits assumed): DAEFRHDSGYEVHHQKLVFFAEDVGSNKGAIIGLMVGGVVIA
Procedure: Inhibition of Aβ1-42 self-aggregation was measured by thioflavin-T (ThT) fluorescence assay ([Hudson et al., 2009]). Aβ1-42 peptides were purchased from Kelowna International Scientific Inc. To avoid Aβ1-42 self-aggregation before the start of the experiment, Aβ1-42 peptides were dissolved in hexafluoroisopropanol (HFIP) to a concentration of 1 mM. The clear solution containing the dissolved peptide was then aliquoted in micro centrifuge tube. The solution was evaporated under vacuum to remove HFIP to give monomeric Aβ1-42. The monomeric Aβ1-42 was dissolved in NaOH(aq) (60 mM) to give a stock solution (1 mM). The Aβ1-42 stock solution was diluted with 50 mM phosphate buffer (containing 0.15 M NaCl, pH 7.4) before use. Fresh ThT stock solution was prepared by dissolving ThT (Sigma, T3516) in phosphate buffer and filtrated through […] Nylon syringe filter. The ThT stock solution and 400 mM ethylenediaminetetraacetic acid (EDTA) were diluted into the phosphate buffer to generate the working solution as background. A mixture of working solution (ThT final concentration: 10 μM), Aβ1-42 stock solution (Aβ1-42 final concentration: 10 μM) and the tested compounds were incubated on BioShake iQ ThermoMixer (37°C, 700 rpm) for 24 h. Fluorescence was measured by Victor 2X microplate spectrophotometer (excitation λ = 440 nm, emission λ = 486 nm), and adapted for 96-well microtiter plates. The fluorescence intensities were recorded and the percent inhibition due to the presence of the inhibitors were calculated by the following formula: (1 - IFi/IFc) × 100% where IFi and IFc were the fluorescence intensities obtained for Aβ1-42 in the presence and in the absence of inhibitors after subtracting the background, respectively. The IC50 values were calculated by the linear regression model of the data. All experiments were performed in triplicate.

| Structure (SMILES) | Cell viability of SH-SY5Y cells (SH-SY5Y cells) | Viability of primary rat mesencephalic neurons [1] | IC50 (Aβ1-42) | inhibition at 10 µM (Aβ1-42) |
| --- | --- | --- | --- | --- |
| C[n+]1ccc(-c2ccccc2)cc1.[I-] [1-methyl-4-phenylpyridinium iodide] | 80% | roughly 75% |  |  |
| O=c1c(O)c(-c2ccc(O)cc2O)oc2cc(O)cc(O)c12 [Morin, morin, reference compound] |  |  | 8.8 ± 0.7 µM | 56.9 ± 5.9% |
| O=C(CCCCCCC(=O)Nc1ccccc1)NO [SAHA, suberoylanilide hydroxamic acid, reference compound] |  |  | > 10 µM | -13.3 ± 1.8% |
